pEC50: −log10 of the molar value. The source made the active and inactive calls. No cut-off for these calls is given here.

Data set [1] in a line: Cytotoxicity against human HeLa cells expressing YFP parkin treated with FCCP/ oligomycin assessed as highest safety dose by DAPI staining analysis. The note with it: read-out: Activity. The class given is toxicity, cell-based.
Data set [2] is described as follows: Cytotoxicity against human HeLa cells expressing YFP parkin assessed as highest safety dose by DAPI staining analysis. The class given is toxicity, cell-based. The following applies: read-out: Activity.
The nature of data set [3]: Cytotoxicity against human HeLa cells expressing YFP parkin in presence of FCCP/oligomycin at 25 uM assessed as maximum cell death by DAPI staining analysis relative to control. The class given is toxicity, cell-based.
For data set [4], the system named is Mus musculus. Nature of the data set: Protection against PFFs induced alpha-synuclein fibril formation in C57BL/6 mouse assessed as reduction in phosphorylated S129 alpha-synuclein level at 6.25 to 50 mg/kg, po administered twice daily. The format is functional, organism-based. The note with it: dose 6.25-50 mg/kg.
Data set [5] deals with Mus musculus. Nature of the data set: Protection against PFFs induced alpha-synuclein fibril formation in C57BL/6 mouse assessed as reduction in phosphorylated S129 alpha-synuclein (250-12) level at 6.25 to 50 mg/kg, po administered twice daily. The format is functional, organism-based. The following applies: dose 6.25-50 mg/kg.
Data set [6] relates to Mus musculus. Nature of the data set: Protection against PFFs induced alpha-synuclein fibril formation in C57BL/6 mouse assessed as reduction in phosphorylated S129 alpha-synuclein monomer level at 6.25 to 50 mg/kg, po administered twice daily. The note with it: dose 6.25-50 mg/kg. The format is functional, organism-based.
The subject of data set [7] is Primary hippocampal neuron. Nature of the data set: Protection against PFFs induced alpha-synuclein fibril formation in C57BL/6 mouse derived primary hippocampal neurons assessed as reduction in phosphorylated S129 alpha-synuclein level at 0.1 to 25 uM measured after 6 days. The format is functional, cell-based. The following applies: dose 0.1-25 µM, time 6.0 day.
Data set [8] has as its system Primary hippocampal neuron. In words: Protection against PFFs induced alpha-synuclein fibril formation in C57BL/6 mouse derived primary hippocampal neurons assessed as reduction in phosphorylated S129 alpha-synuclein (250-12) level at 0.1 to 25 uM measured after 6 days. The format is functional, cell-based. The note with it: dose 0.1-25 µM, time 6.0 day.
Data set [9] relates to Primary hippocampal neuron. Nature of the data set: Protection against PFFs induced alpha-synuclein fibril formation in C57BL/6 mouse derived primary hippocampal neurons assessed as reduction in phosphorylated S129 alpha-synuclein monomer level at 0.1 to 25 uM measured after 6 days. The following applies: dose 0.1-25 µM, time 6.0 day. The format is functional, cell-based.

In data set [10] the test system is HeLa. Nature of the data set: Induction of mitophagy in human HeLa Mito-Keima cells treated with FCCP/oligomycin measured by FACS analysis. The format is functional, cell-based.
For data set [11], the system named is HeLa. Nature of the data set: Induction of mitophagy in human HeLa YFP-Parkin cells treated with FCCP/oligomycin assessed as cells with parkin recruited to mitochondria at 60 mins by FACS analysis. The class given is functional, cell-based. The following applies: 1 h.
A short description of data set [12]: Cmax in C57BL/6 mouse at 10 mg/kg, po administered as single dose by mass spectrometry. The format is ADME, organism-based. The following applies: in vivo. Details: dose 10 mg/kg, route po.
Data set [13] can be described thus: Cmax in C57BL/6 mouse at 25 mg/kg, po administered as single dose by mass spectrometry. The format is ADME, organism-based. Details: dose 25 mg/kg, route po. The following applies: in vivo.
Data set [14] in a line: Cmax in C57BL/6 mouse at 50 mg/kg, po administered as single dose by mass spectrometry. The format is ADME, organism-based. Details: dose 50 mg/kg, route po. The note with it: in vivo.
A short description of data set [15]: Cmax in C57BL/6 mouse at 100 mg/kg, po administered as single dose by mass spectrometry. The format is ADME, organism-based. Details: dose 100 mg/kg, route po. The note with it: in vivo.
Data set [16] is described as follows: AUClast in C57BL/6 mouse at 10 mg/kg, po administered as single dose by mass spectrometry. The class given is ADME, organism-based. Details: dose 10 mg/kg, route po. The note with it: in vivo.
Data set [17] can be described thus: AUClast in C57BL/6 mouse at 25 mg/kg, po administered as single dose by mass spectrometry. The class given is ADME, organism-based. Details: dose 25 mg/kg, route po. The note with it: in vivo.
Data set [18] can be described thus: AUClast in C57BL/6 mouse at 50 mg/kg, po administered as single dose by mass spectrometry. The format is ADME, organism-based. Details: dose 50 mg/kg, route po. The note with it: in vivo.
Data set [19] is described as follows: AUClast in C57BL/6 mouse at 100 mg/kg, po administered as single dose by mass spectrometry. The class given is ADME, organism-based. Details: dose 100 mg/kg, route po. The following applies: in vivo.
Data set [20] has as its system Mus musculus. Nature of the data set: Protection against kidney fibrosis in cisplatin-challenged C57BL/6 mouse assessed as rescue of KIM-1 at 6.25 to 50 mg/kg, po administered once a day for 3 days. The class given is functional, organism-based. The note with it: dose 6.25-50 mg/kg, time 3.0 day.
Data set [21] has as its system Mus musculus. In words: Protection against kidney fibrosis in cisplatin-challenged C57BL/6 mouse assessed as reduction in Gdf15 expression at 6.25 to 50 mg/kg, po administered once a day for 3 days. The class given is functional, organism-based. The following applies: dose 6.25-50 mg/kg, time 3.0 day.
In data set [22] the test system is Mus musculus. In words: Protection against kidney fibrosis in cisplatin-challenged C57BL/6 mouse assessed as reduction in Tnfrsf12a expression at 6.25 to 50 mg/kg, po administered once a day for 3 days. The note with it: dose 6.25-50 mg/kg, time 3.0 day. The format is functional, organism-based.

With `COC1CN([C@@H]2COc3ccccc3[C@H]2Nc2ncnc3[nH]c(C4CC4)cc23)C1`, the MNTC in [1] and in data set [2] was 25 µM throughout. Besides, the maximal effect (Emax) at 25 µM in data set [3] is 22.5%.
Take `c1ccc2c(c1)OC[C@H](N1CCOCC1)[C@H]2Nc1ncnc2[nH]c(C3CC3)cc12`: the MNTC in [1] and in [2] was 25 µM throughout. Further, the outcome (in the data set on Mus musculus [4]; in the data set with Mus musculus [5]; with Mus musculus [6]; in data set [7]; in data set [8]; in data set [9]) was Active. The outcome in the data set on Mus musculus [20], in the data set with Mus musculus [21] and with Mus musculus [22] was Active. In addition, the results for the pEC50 with HeLa [10] and with HeLa [11] were 6.82 and 5.94, respectively. For the same compound, the Cmax in [12] was found to be 0.35 µM; in data set [13], 1.15 µM; in [14] it was 9.21 µM; in [15], 19.4 µM. The AUC(0-t) was found to be 0.51 µM·h in [16], 1.91 µM·h in data set [17], 17.3 µM·h in [18] and 85.6 µM·h in [19].

The values are drawn from ChEMBL document CHEMBL5393453, “Compositions and methods of using the same for treatment of neurodegenerative and mitochondrial disease” (2021).
